Our source for the mass density and refractive index values is the NIST ThermoML archive (doi:10.1021/acs.jced.7b00674).

The conditions of series [1]: 298.15 K; 101.33 kPa; Liquid; Vibrating tube method.
Series [2] in a line: refractive index (Na D-line) (dimensionless). The settings on record: 298.15 K; 101.33 kPa; Liquid; Standard Abbe refractometry.

± gives the expanded uncertainty stated by the source.

`OC1CCCCC1` [cyclohexanol]: the mass density in series [1] was found to be 961.5 ± 16 kg/m3. Moreover, in series [2], the refractive index is listed as 1.4621 ± 0.012.
The corresponding values for `CC(=O)C=C(C)C` [4-methyl-3-penten-2-one] are 857.6 ± 16 kg/m3 and 1.4416 ± 0.012.
Consider `O` [water], for which the refractive index in series [2] stood at 1.3324 ± 0.012.
On to `Cc1ccc(C)cc1` [1,4-dimethylbenzene], for which, in series [1], the mass density was found to be 856.5 ± 16 kg/m3. The refractive index in series [2] turned out to be 1.4931 ± 0.012.
As to `Cc1ccccc1` [toluene], the mass density in series [1] worked out at 862.1 ± 16 kg/m3. In addition, the refractive index in series [2] came out at 1.4938 ± 0.012.
